Test results as given in DBAASP.
≈ marks a conversion by molar mass, not a printed value. Each block holds one compound with its values, some of them ahead of it.

Key:
Test in all cases: ≥ marks a high value that may be exact or a test limit, other limits are often not marked, values filed in µg/mL are converted to µM
Escherichia coli 55B5 = tested on: Escherichia coli 55B5
Staphylococcus aureus = tested on: Staphylococcus aureus
Escherichia coli UB1005 = tested on: Escherichia coli UB1005
Pseudomonas aeruginosa = tested on: Pseudomonas aeruginosa
Salmonella typhimurium = tested on: Salmonella typhimurium
[1] = tested on: Candida albicans ATCC 90028
[2] = tested on: Candida parapsilosis ATCC 22019
Bacillus megaterium = tested on: Bacillus megaterium
[3] = tested on: Escherichia coli ATCC 35218
Saccharomyces cerevisiae = tested on: Saccharomyces cerevisiae
[4] = tested on: Escherichia coli ATCC 25922
[5] = tested on: Staphylococcus aureus ATCC 25923
[6] = tested on: Pseudomonas aeruginosa ATCC 27853
Aspergillus flavus = tested on: Aspergillus flavus
[7] = tested on: Enterococcus faecalis ATCC 29212
[8] = tested on: Staphylococcus aureus ATCC 2576
Shigella dysenteriae = tested on: Shigella dysenteriae
[9] = tested on: Candida albicans ATCC 3007
[10] = tested on: Shigella dysenteriae ATCC 2932
[11] = tested on: Escherichia coli ATCC 25629
Escherichia coli = tested on: Escherichia coli
Micrococcus luteus = tested on: Micrococcus luteus
Escherichia coli D21 = tested on: Escherichia coli D21
[12] = tested on: Acinetobacter baumannii ATCC 19606
[13] = tested on: Staphylococcus aureus II ATCC 6538P
[14] = tested on: Staphylococcus epidermidis LT1324
Staphylococcus simulans = tested on: Staphylococcus simulans
[15] = tested on: Spiroplasma floricola BNR 1
Spiroplasma citri R8A2 = tested on: Spiroplasma citri R8A2
[16] = tested on: Spiroplasma melliferum BC3
[17] = tested on: Acholeplasma laidlawii A-EF22
[18] = tested on: Mycoplasma mycoides ssp. mycoides SC KH3J

Compound: CC[C@H](C)[C@H](NC(=O)[C@H](C)N)C(=O)N[C@@H](Cc1cnc[nH]1)C(=O)N[C@@H](CCCCN)C(=O)N[C@@H](CC(C)C)C(=O)N[C@@H](C)C(=O)N[C@@H](Cc1cnc[nH]1)C(=O)N[C@@H](CCCCN)C(=O)N[C@@H](CC(C)C)C(=O)N[C@@H](CC(C)C)C(=O)N[C@@H](CCCCN)C(=O)N[C@@H](CCCCN)C(=O)N[C@H](C(=O)N[C@@H](CC(C)C)C(=O)N[C@@H](CCCN=C(N)N)C(=O)N[C@@H](C)C(=O)N[C@H](C(=O)N[C@@H](CCCCN)C(=O)N[C@@H](CCCCN)C(=O)N[C@@H](CC(C)C)C(=O)N[C@@H](C)C(=O)N[C@@H](CC(N)=O)C(=O)O)C(C)C)[C@@H](C)O [AIHKLAHKLLKKTLRAVKKLAN]
MIC (Escherichia coli 55B5): 5.2 µM (≈ 13 µg/mL)
MIC (Staphylococcus aureus): 30 µM (≈ 74.9 µg/mL)
MIC (Escherichia coli UB1005): 5.5 µM (≈ 13.7 µg/mL)
MIC (Pseudomonas aeruginosa): 10.5 µM (≈ 26.2 µg/mL)
MIC (Salmonella typhimurium): 8.5 µM (≈ 21.2 µg/mL)

Compound: CC[C@H](C)[C@H](NC(=O)[C@@H]1CCCN1C(=O)[C@H](CC(C)C)NC(=O)[C@@H](N)Cc1ccccc1)C(=O)N[C@H](C(=O)N[C@H](C(=O)N[C@@H](CC(N)=O)C(=O)N[C@@H](CC(C)C)C(=O)N[C@@H](CC(C)C)C(=O)N[C@@H](CO)C(=O)NCC(=O)N[C@@H](CC(C)C)C(=O)N[C@@H](CC(C)C)C(=O)O)[C@@H](C)O)C(C)C [FLPIVTNLLSGLL]
MIC [1]: ≥ 116 µM
MIC [2]: ≥ 116 µM
MIC (Bacillus megaterium): ≥ 46 µM
MIC [3]: ≥ 116 µM
MIC (Saccharomyces cerevisiae): ≥ 116 µM
MIC [4]: 231 µM (≈ 323 µg/mL)
MIC [5]: 58 µM (≈ 81.2 µg/mL)
MIC [6]: > 231 µM
MIC (Aspergillus flavus): ≥ 58 µM
MIC [7]: > 116 µM

Second part, led by results:

MIC [8]: 0.166 µM (≈ 0.5 µg/mL)
MIC (Staphylococcus aureus): 0.332 µM (≈ 1 µg/mL)
MIC (Shigella dysenteriae): 1.66 µM (≈ 5 µg/mL)
MIC [9]: 2.49 µM (≈ 7.5 µg/mL)
MIC [11]: 1.66 µM (≈ 5 µg/mL)
MIC (Escherichia coli): 1.66 µM (≈ 5 µg/mL)
Compound: CC[C@H](C)[C@H](NC(=O)CN)C(=O)N[C@@H](CC(C)C)C(=O)N[C@@H](CCCCN)C(=O)N[C@@H](CCCCN)C(=O)N[C@@H](Cc1ccccc1)C(=O)N[C@@H](CCSC)C(=O)N[C@@H](CC(C)C)C(=O)N[C@@H](Cc1cnc[nH]1)C(=O)N[C@@H](CCCN=C(N)N)C(=O)NCC(=O)N[C@H](C(=O)N[C@@H](CCCCN)C(=O)N[C@H](C(=O)N[C@@H](Cc1ccc(O)cc1)C(=O)N[C@@H](CCCCN)C(=O)N[C@@H](CCSC)C(=O)N[C@@H](CCCN=C(N)N)C(=O)N[C@H](C(=O)N[C@@H](CC(C)C)C(=O)N[C@@H](CO)C(=O)N[C@@H](CCCCN)C(=O)N[C@@H](CCCN=C(N)N)C(=O)N[C@@H](CO)C(=O)N[C@@H](Cc1cnc[nH]1)C(=O)O)[C@@H](C)O)C(C)C)[C@@H](C)O [GILKKFMLHRGTKVYKMRTLSKRSH]
MIC [10]: 0.829 µM (≈ 2.5 µg/mL)

MIC (Micrococcus luteus): 2 µM (≈ 3.61 µg/mL)
MIC (Escherichia coli D21): 3 µM (≈ 5.41 µg/mL)
MIC [12]: 2 µM (≈ 3.61 µg/mL)
MIC [13]: 6 µM (≈ 10.8 µg/mL)
MIC [14]: 1.5 µM (≈ 2.71 µg/mL)
MIC [4]: 3 µM (≈ 5.41 µg/mL)
MIC [6]: 6 µM (≈ 10.8 µg/mL)
MIC (Staphylococcus simulans): 1.5 µM (≈ 2.71 µg/mL)
Compound: CC(C)C[C@H](NC(=O)[C@H](CC(C)C)NC(=O)[C@H](CCCCN)NC(=O)[C@H](CC(C)C)NC(=O)[C@H](CC(C)C)NC(=O)[C@H](CCCCN)NC(=O)[C@H](CC(C)C)NC(=O)[C@H](CC(C)C)NC(=O)[C@H](CCCCN)NC(=O)[C@H](CC(C)C)NC(=O)[C@H](CC(C)C)NC(=O)[C@H](CCCCN)NC(=O)[C@H](CC(C)C)NC(=O)[C@@H](N)CCCCN)C(=O)N[C@@H](CCCCN)C(N)=O [KLKLLKLLKLLKLLK]

MIC [15]: 6.25 µM (≈ 11.2 µg/mL)
MIC (Spiroplasma citri R8A2): 6.25 µM (≈ 11.2 µg/mL)
MIC [16]: 6.25 µM (≈ 11.2 µg/mL)
MIC [17]: 1.56 µM (≈ 2.79 µg/mL)
MIC [18]: 6.25 µM (≈ 11.2 µg/mL)
Compound: CC(C)C[C@H](NC(=O)[C@H](CC(C)C)NC(=O)[C@H](CCCCN)NC(=O)[C@H](CC(C)C)NC(=O)[C@H](CC(C)C)NC(=O)[C@H](CC(C)C)NC(=O)[C@H](CCCCN)NC(=O)[C@H](CC(C)C)NC(=O)[C@H](CC(C)C)NC(=O)[C@H](CC(C)C)NC(=O)[C@H](CCCCN)NC(=O)[C@H](CC(C)C)NC(=O)[C@H](CC(C)C)NC(=O)[C@@H](N)CCCCN)C(=O)N[C@@H](CCCCN)C(=O)O [KLLKLLLKLLLKLLK]
